What all share (assay type): cell-based
In test [1] the target is T1, Myostatin (Homo sapiens, UniProt O14793).
T1 construct: active myostatin (also called mature myostatin) is a homodimer consisting of two C-terminal growth factor domains; purchased R&D systems 788-G8/CF
T1 sequence (O14793 267-375): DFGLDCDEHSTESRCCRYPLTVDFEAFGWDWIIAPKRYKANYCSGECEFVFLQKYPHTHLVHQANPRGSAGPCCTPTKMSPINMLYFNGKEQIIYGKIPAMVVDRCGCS
As to the kind of experiment: Reporter gene assay for myostatin signaling in HepG2 cell line, Evaluation Procedure (1), myostatin inhibition. The settings on record: read-out: IC50 (Luciferase) Myostatin HepG2. A digest of the protocol:
(§1)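 HepG2 cells transfected with pGL3(CAGA)12-luciferase reporter, serum-starved in 0.1% BSA medium, then stimulated with myostatin or GDF-11 plus 4-fold peptide dilutions (0.006–100 nmol/L for myostatin, 0.12–2000 nmol/L for GDF-11) for 20–24 h at 37 °C. Luminescence read with One-Glo; IC50 calculated.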
(In a reporter assay the amount or activity of a reporter protein is the signal.)

The test system of test [2] is Myostatin. The description is as above. The settings on record: GDF-11 IC50 versus Myostatin IC50. A digest of the protocol: as §1
Test [3] deals with T2, GDF-11 (Homo sapiens, UniProt O95390).
T2 construct: purchased R&D systems 1958-GD-G8/CF
T2 sequence (O95390 299-407): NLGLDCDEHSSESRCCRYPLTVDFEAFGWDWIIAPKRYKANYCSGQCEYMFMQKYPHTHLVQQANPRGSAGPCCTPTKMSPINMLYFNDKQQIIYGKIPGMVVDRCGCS
As to the kind of experiment: Reporter gene assay for myostatin signaling in HepG2 cell line, Evaluation Procedure (1), GDF-11 inhibition. To be noted: read-out: IC50 (Luciferase) GDF-11 HepG2. The procedure, abridged:
as §1

Like-named read-outs stand apart in the source and are kept apart here. Starred links: 1 amine or outer side, 2 acyl side, 3 side chain; linkers in the order of their positions; H or OH if unused. Positions of bridges follow the written chain, without caps; N, C: chain ends. Non-standard residues stand in square brackets, D forms with d. Residues, ends and D or L forms follow the SMILES beside them. *: point of attachment. Phe(4-(4-pyridyl)) = N[C@@H](Cc1ccc(-c2ccncc2)cc1)C(=O)O; Phe(3-OCH2COOH) = N[C@@H](Cc1cccc(OCC(=O)O)c1)C(=O)O; Trp(6-OH) = N[C@@H](Cc1c[nH]c2cc(O)ccc12)C(=O)O; Phe(4-COOH) = N[C@@H](Cc1ccc(C(=O)O)cc1)C(=O)O; Trp(6-aza) = N[C@@H](Cc1c[nH]c2cnccc12)C(=O)O; Piperazinyl(4-CH2COOH) = O=C(O)CN1CCN(*)CC1; Piperidinyl(4-CH2COOH) = O=C(O)CC1CCN(*)CC1; Bip = N[C@@H](Cc1ccc(-c2ccccc2)cc1)C(=O)O; Gly(decyl) = CCCCCCCCCC[C@H](N)C(=O)O; Gly(N(CH2)3COOH) = O=C(O)CCCNCC(=O)O; NMe3Pal = CN[C@@H](Cc1cccnc1)C(=O)O; X1 = CCCCCCC[C@H](N[*:1])C(=O)[*:2]; NMeF = CN[C@@H](Cc1ccccc1)C(=O)O; 4Pal = N[C@@H](Cc1ccncc1)C(=O)O; NMeE = CN[C@@H](CCC(=O)O)C(=O)O; hSer = N[C@@H](CCO)C(=O)O; Carboxymethyl = O=C(O)C*; NMeA = CN[C@@H](C)C(=O)O; Sar = CNCC(=O)O; Propyl = CCC*

In general, IC50 refers to the midpoint of a concentration-inhibition curve. Turning to `CC[C@H](C)[C@@H]1NC(=O)[C@H](Cc2ccccc2)N(C)C(=O)[C@H](Cc2ccc(O)cc2)NC(=O)[C@H](Cc2ccc(-c3ccncc3)cc2)NC(=O)[C@H](C)NC(=O)[C@H](C)NC(=O)CSC[C@H](C(=O)O)NC(=O)[C@H](Cc2ccccc2)N(C)C(=O)[C@H](C)N(C)C(=O)[C@H](CC(C)C)NC(=O)[C@H](Cc2ccccc2)N(C)C(=O)[C@H](CCCNC(=N)N)NC(=O)[C@H](Cc2ccc(OCC(=O)O)cc2)NC(=O)[C@H](Cc2cccc(OCC(=O)O)c2)NC(=O)CN(C)C1=O` [Myostatin_99_v107] ({CH2CO}-AA[Phe(4-(4-pyridyl))]Y[NMeF]I[Sar][Phe(3-OCH2COOH)]Y(Carboxymethyl)R[NMeF]L[NMeA][NMeF][dC]-OH; thioether N-15), the results for the IC50 in test [1] (Method A: Myostatin 10 ng/mL) and in test [3] (Method A: GDF-11 10 ng/mL) were 2.8 nM and 466 nM, respectively. The molecule further displayed a Selectivity in test [2] (Method A) of 166.
The corresponding values for `CC[C@H](C)[C@@H]1NC(=O)[C@H](Cc2ccccc2)N(C)C(=O)[C@H](Cc2ccc(O)cc2)NC(=O)[C@H](Cc2ccc(-c3ccccc3)cc2)NC(=O)[C@H](C)NC(=O)[C@H](C)NC(=O)CSC[C@H](C(=O)O)NC(=O)[C@H](Cc2ccccc2)N(C)C(=O)[C@H](C)N(C)C(=O)[C@H](CC(C)C)NC(=O)[C@H](Cc2ccccc2)N(C)C(=O)[C@H](CCCNC(=N)N)NC(=O)[C@H](Cc2ccc(OCC(=O)O)cc2)NC(=O)[C@H](Cc2cccc(OCC(=O)O)c2)NC(=O)CN(C)C1=O` [Myostatin_99_v108] ({CH2CO}-AA[Bip]Y[NMeF]I[Sar][Phe(3-OCH2COOH)]Y(Carboxymethyl)R[NMeF]L[NMeA][NMeF][dC]-OH; thioether N-15) are 3.6 nM, 374 nM and 104.
The corresponding values for `CC[C@H](C)[C@@H]1NC(=O)[C@H](Cc2ccccc2)N(C)C(=O)[C@H](Cc2ccc(O)cc2)NC(=O)[C@H](Cc2c[nH]c3ccccc23)NC(=O)[C@H](C)NC(=O)CN(CCCC(=O)O)C(=O)CSC[C@H](C(=O)O)NC(=O)[C@H](Cc2ccccc2)N(C)C(=O)[C@H](C)N(C)C(=O)[C@H](CC(C)C)NC(=O)[C@H](Cc2ccccc2)N(C)C(=O)[C@H](CCCNC(=N)N)NC(=O)[C@H](Cc2ccc(C(=O)O)cc2)NC(=O)[C@H](Cc2cccc(OCC(=O)O)c2)NC(=O)CN(C)C1=O` [Myostatin_99_v156] ({CH2CO}-[Gly(N(CH2)3COOH)]AWY[NMeF]I[Sar][Phe(3-OCH2COOH)][Phe(4-COOH)]R[NMeF]L[NMeA][NMeF][dC]-OH; thioether N-15) are 69 nM, 4810 nM and 70.
Consider `CCCCCCC[C@@H]1NC(=O)[C@H](Cc2ccccc2)N(C)C(=O)[C@H](CCCNC(=N)N)NC(=O)[C@H](Cc2ccc(C(=O)O)cc2)NC(=O)[C@H](Cc2ccc(O)cc2)NC(=O)[C@H](C)N(C)C(=O)[C@H]([C@@H](C)CC)NC(=O)[C@H](Cc2ccccc2)N(C)C(=O)[C@H](Cc2ccc(O)cc2)NC(=O)[C@H](Cc2c[nH]c3ccccc23)NC(=O)[C@H](C)NC(=O)CN(CCCC(=O)O)C(=O)CSC[C@H](C(=O)O)NC(=O)[C@H](Cc2ccccc2)N(C)C(=O)[C@H](C)N(C)C1=O` [Myostatin_99_v181] ({CH2CO}-[Gly(N(CH2)3COOH)]AWY[NMeF]I[NMeA]Y[Phe(4-COOH)]R[NMeF][X1][NMeA][NMeF][dC]-OH; thioether N-15), for which the IC50 in test [1] (Method A: Myostatin 10 ng/mL) is 4.5 nM; in test [3] (Method A: GDF-11 10 ng/mL), 194 nM. This molecule came in with a Selectivity in test [2] (Method A) of 43.
The corresponding values for `CCCCCCC[C@@H]1NC(=O)[C@H](Cc2ccccc2)N(C)C(=O)[C@H](CCCNC(=N)N)NC(=O)[C@H](Cc2ccc(C(=O)O)cc2)NC(=O)[C@H](Cc2cccc(OCC(=O)O)c2)NC(=O)CN(C)C(=O)[C@H]([C@@H](C)CC)NC(=O)[C@H](Cc2ccccc2)N(C)C(=O)[C@H](Cc2ccc(O)cc2)NC(=O)[C@H](Cc2c[nH]c3ccccc23)NC(=O)[C@H](C)NC(=O)[C@H](C)NC(=O)CSC[C@H](C(=O)O)NC(=O)[C@H](Cc2cccnc2)N(C)C(=O)[C@H](C)N(C)C1=O` [Myostatin_99_v214] ({CH2CO}-AAWY[NMeF]I[Sar][Phe(3-OCH2COOH)][Phe(4-COOH)]R[NMeF][X1][NMeA][NMe3Pal][dC]-OH; thioether N-15) are 6.6 nM, 1320 nM and 201.
For `CCCCCCCCCC[C@@H]1NC(=O)[C@H](Cc2ccccc2)N(C)C(=O)[C@H](CCCNC(=N)N)NC(=O)[C@H](Cc2ccc(C(=O)O)cc2)NC(=O)[C@H](Cc2cccc(OCC(=O)O)c2)NC(=O)[C@H]2CCCN2C(=O)[C@H]([C@@H](C)CC)NC(=O)[C@H](Cc2ccccc2)N(C)C(=O)[C@H](Cc2ccc(O)cc2)NC(=O)[C@H](Cc2c[nH]c3cc(O)ccc23)NC(=O)[C@H](C)NC(=O)[C@H](C)NC(=O)CSC[C@H](C(=O)N2CCN(CC(=O)O)CC2)NC(=O)[C@H](Cc2ccccc2)N(C)C(=O)[C@H](CCC(=O)O)N(C)C1=O` [Myostatin_99_v384] ({CH2CO}-AA[Trp(6-OH)]Y[NMeF]I[dP][Phe(3-OCH2COOH)][Phe(4-COOH)]R[NMeF][Gly(decyl)][NMeE][NMeF][dC]-{Piperazinyl(4-CH2COOH)}; thioether N-15), the IC50 in test [1] (Method D: Myostatin 1.5 ng/mL) was determined as 0.04 nM; in test [3] (Method D: GDF-11 1.5 ng/mL), 32.8 nM. The molecule also showed a Selectivity in test [2] (Method D) of 805.658.
As for `CCCOCC[C@@H]1NC(=O)[C@H](Cc2ccccc2)N(C)C(=O)[C@H](CCCNC(=N)N)NC(=O)[C@H](Cc2ccc(C(=O)O)cc2)NC(=O)[C@H](Cc2ccncc2)NC(=O)CN(C)C(=O)[C@H]([C@@H](C)CC)NC(=O)[C@H](Cc2ccccc2)N(C)C(=O)[C@H](Cc2ccc(O)cc2)NC(=O)[C@H](Cc2c[nH]c3ccccc23)NC(=O)[C@H](C)NC(=O)CN(CCCC(=O)O)C(=O)CSC[C@H](C(=O)O)NC(=O)[C@H](Cc2ccccc2)N(C)C(=O)[C@H](C)N(C)C1=O` [Myostatin_99_v230] ({CH2CO}-[Gly(N(CH2)3COOH)]AWY[NMeF]I[Sar][4Pal][Phe(4-COOH)]R[NMeF][hSer](Propyl)[NMeA][NMeF][dC]-OH; thioether N-15), the values for the IC50 in test [1] (Method A: Myostatin 10 ng/mL) and in test [3] (Method A: GDF-11 10 ng/mL) were 57.1 nM and 8370 nM, respectively. For the same molecule, the Selectivity in test [2] (Method A) is listed as 147.
Take `CCCCCCCCCC[C@@H]1NC(=O)[C@H](Cc2ccccc2)N(C)C(=O)[C@H](CCCNC(=N)N)NC(=O)[C@H](Cc2ccc(C(=O)O)cc2)NC(=O)[C@H](Cc2cccc(OCC(=O)O)c2)NC(=O)CN(C)C(=O)[C@H]([C@@H](C)OC)NC(=O)[C@H](Cc2ccccc2)N(C)C(=O)[C@H](Cc2ccc(O)cc2)NC(=O)[C@H](Cc2c[nH]c3cnccc23)NC(=O)[C@H](C)NC(=O)[C@H](C)NC(=O)CSC[C@H](C(=O)N2CCC(CC(=O)O)CC2)NC(=O)[C@H](Cc2ccccc2)N(C)C(=O)[C@H](CCC(=O)O)N(C)C1=O` [Myostatin_99_v341] ({CH2CO}-AA[Trp(6-aza)]Y[NMeF]T(Me)[Sar][Phe(3-OCH2COOH)][Phe(4-COOH)]R[NMeF][Gly(decyl)][NMeE][NMeF][dC]-{Piperidinyl(4-CH2COOH)}; thioether N-15): the figures for the IC50 in test [1] (Method B: Myostatin 1 ng/mL) and in test [3] (Method B: GDF-11 1 ng/mL) were 0.76 nM and 132 nM, respectively. Further, the Selectivity in test [2] (Method B) came to 173.9.

The record behind these values is patent publication EP4786487A1, “PEPTIDE” (Peptidream Inc, priority 2023, dated 2025).
